Laboratory results published in PMC3894558, “Chemical signatures and new drug targets for gametocytocidal drug development” (Scientific Reports, 2014).
Where two headings read alike, the source gives them in different places.

System: P. falciparum 3D7 gametocytes
Assay: alamarBlue gametocyte viability assay, strain 3D7
Assay type: cell-based, Plasmodium falciparum
Conditions: Malaria Box; for Max Resp: DMSO set at 0%, 100 nM epoxomicin set at -100%; for Curve Class / IC50: stages III-V 3D7 gametocytes; for IC50: 11 concentrations, 1:3 dilution; call rule not given here

With `COc1ccc2sc(N(Cc3cccnc3)C(=O)c3ccc(C#N)cc3)nc2c1` [MMV001239] the “Max Resp” value was -40%, the “Curve Class” value was -2.2 and the IC50 was “Inactive”.

For `COc1ccc(C)c2sc(N(Cc3cccnc3)C(=O)c3ccc(C#N)cc3)nc12` [MMV001241], the “Max Resp” value was -48%, the “Curve Class” value was -2.2 and the IC50 was “Inactive”.

In the case of `CSc1ccccc1C(=O)Nc1nc(-c2ccccn2)cs1` [MMV001246], the “Max Resp” value is reported as -72%, the “Curve Class” value is reported as -2.2 and the IC50 (read-out: IC50) is reported as 11.8 µM.

`CCCCc1ccc(NS(=O)(=O)c2cc3c4c(c2)CCN4C(=O)CC3)cc1` [MMV001255] was tested, and the “Max Resp” value was 2%, the “Curve Class” value was 4 and the IC50 was “Inactive”.

In the case of `O=C(Nc1ccc(Br)cc1)Nc1cccc(Cl)c1` [MMV001318], the “Max Resp” value is reported as -20%, the “Curve Class” value is reported as 4 and the IC50 is reported as “Inactive”.

For `CC1CC(C)CN(C(=O)c2ccc(Cl)cc2Cl)C1` (stereo not drawn) [MMV001344], the “Max Resp” value was -13%, the “Curve Class” value was 4 and the IC50 was “Inactive”.

For `CCN(CC)CCNc1ccnc2cc(Cl)ccc12` [MMV006087], the “Max Resp” value was -66%, the “Curve Class” value was -1.2 and the IC50 (read-out: IC50) was 0.372 µM.

In the case of `c1ccc(CNc2nc(Nc3ccccc3)nc3ccccc23)cc1` [MMV006169], the “Max Resp” value is reported as -80%, the “Curve Class” value is reported as -2.2 and the IC50 (read-out: IC50) is reported as 11.8 µM.

For `CN1CCN(c2ccc(Nc3c4ccccc4nc4ccccc34)cc2)CC1` [MMV006172], the “Max Resp” value was -98%, the “Curve Class” value was -1.1 and the IC50 (read-out: IC50) was 1.48 µM.

For `O=C(NCc1ccco1)C1CCN(S(=O)(=O)c2ccc(Cl)cc2)CC1` [MMV006188], the “Max Resp” value was 19%, the “Curve Class” value was 4 and the IC50 was “Inactive”.

For `Cc1cc(NCCN2CCCCC2)c2ccc3ccccc3c2n1` [MMV006203], the “Max Resp” value was -94%, the “Curve Class” value was -1.1 and the IC50 (read-out: IC50) was 8.33 µM.

With `CCOC(=O)c1cnc2c(C)cccc2c1Nc1ccc(C(C)=O)cc1` [MMV006250] the “Max Resp” value was 3%, the “Curve Class” value was 4 and the IC50 was “Inactive”.

For `CCc1c(C)c(=N)c2ccccc2n1C.I` [MMV006278], the “Max Resp” value was -52%, the “Curve Class” value was -2.2 and the IC50 was “Inactive”.

`CN(C)c1ccc(C=Cc2nc(=O)c3ccccc3o2)cc1` [MMV006309] was tested, and the “Max Resp” value was 2%, the “Curve Class” value was 4 and the IC50 was “Inactive”.

With `Cc1cc(Nc2cccc(F)c2)nc(NCc2ccccc2)n1` [MMV006319] the “Max Resp” value was -60%, the “Curve Class” value was -2.2 and the IC50 (read-out: IC50) was 29.6 µM.

For `O=C1c2ccccc2C2=Nc3ccccc3SC(c3cccc(F)c3)C12` (stereo not drawn) [MMV006389], the “Max Resp” value was 8%, the “Curve Class” value was 4 and the IC50 was “Inactive”.

For `COc1cc(OC)c(N(C)C(=O)c2cc3c(s2)-c2ccccc2S(=O)(=O)C3)cc1Cl` [MMV006427], the “Max Resp” value was -74%, the “Curve Class” value was -2.2 and the IC50 (read-out: IC50) was 11.8 µM.

`Cc1cc(NC(=O)C2c3ccccc3C(=O)N(CC(C)C)C2c2cccs2)no1` (stereo not drawn) [MMV006429] was tested, and the “Max Resp” value was -82%, the “Curve Class” value was -1.1 and the IC50 (read-out: IC50) was 3.32 µM.

With `CCCN(CCC)CC(O)COc1ccccc1C(=O)Nc1ccccc1` (stereo not drawn) [MMV006455] the “Max Resp” value was -40%, the “Curve Class” value was -1.2 and the IC50 (read-out: IC50) was 0.743 µM.

For `CCOC(=O)c1ccc2[nH]c(-c3ccccc3)cc(=O)c2c1` [MMV006457], the “Max Resp” value was 14%, the “Curve Class” value was 4 and the IC50 was “Inactive”.

`c1ccc2c(NCCc3c[nH]c4ccccc34)c3ccccc3nc2c1` [MMV006513] was tested, and the “Max Resp” value was -85%, the “Curve Class” value was -2.1 and the IC50 (read-out: IC50) was 16.6 µM.

For `CCOc1ccc2nc(C)cc(Nc3ccc(Br)cc3)c2c1` [MMV006522], the “Max Resp” value was -59%, the “Curve Class” value was -2.2 and the IC50 (read-out: IC50) was 29.6 µM.

In the case of `Cc1cc(C)c2c(c1)OCN(Cc1ccccc1Cl)C2` [MMV006558], the “Max Resp” value is reported as -44%, the “Curve Class” value is reported as -1.2 and the IC50 (read-out: IC50) is reported as 0.935 µM.

In the case of `Clc1ccc2[nH]c3c(NCCCN4CCOCC4)ncnc3c2c1` [MMV006587], the “Max Resp” value is reported as -49%, the “Curve Class” value is reported as -2.2 and the IC50 is reported as “Inactive”.

For `CCOC(=O)C1=CN(C)C=C(C(=O)OCC)C1c1cc(Br)c(OCC)c(OC)c1` [MMV006656], the “Max Resp” value was -72%, the “Curve Class” value was -2.2 and the IC50 (read-out: IC50) was 14.8 µM.

`CN(C)CCNc1cc(-c2ccccc2)nc2ccccc12` [MMV006704] was tested, and the “Max Resp” value was -79%, the “Curve Class” value was -2.2 and the IC50 (read-out: IC50) was 29.6 µM.

For `Cc1cc(N2CCN(C3CCCC3)CC2)n2c(nc3ccccc32)c1C#N` [MMV006706], the “Max Resp” value was -18%, the “Curve Class” value was 4 and the IC50 was “Inactive”.

With `Cc1cc(=O)oc2c1ccc1oc(C(=O)c3ccccc3)c(C)c12` [MMV006753] the “Max Resp” value was 3%, the “Curve Class” value was 4 and the IC50 was “Inactive”.

In the case of `CCOc1c(Br)cc(C2C(C(=O)OC)=CN(C)C=C2C(=O)OC)cc1OC` [MMV006764], the “Max Resp” value is reported as -76%, the “Curve Class” value is reported as -2.2 and the IC50 (read-out: IC50) is reported as 14.8 µM.

For `COc1cc2cc(C(=O)Nc3ccccc3)c(N)nc2cc1OC` [MMV006767], the “Max Resp” value was -53%, the “Curve Class” value was -2.2 and the IC50 (read-out: IC50) was 37.2 µM.

With `CC(C)CCNCC(O)Cn1c2ccccc2c2ccccc21.Cl` (stereo not drawn) [MMV006787] the “Max Resp” value was -94%, the “Curve Class” value was -1.1 and the IC50 (read-out: IC50) was 2.64 µM.

In the case of `CCCCc1c(C)nc2c(OC)cccc2c1O` [MMV006820], the “Max Resp” value is reported as 24%, the “Curve Class” value is reported as 4 and the IC50 is reported as “Inactive”.

With `COc1ccc(Nc2cc(C)nc(NCc3ccccc3)n2)cc1` [MMV006825] the “Max Resp” value was -74%, the “Curve Class” value was -2.2 and the IC50 (read-out: IC50) was 23.5 µM.

In the case of `c1ccc2cc3c(Nc4ccc(N5CCOCC5)cc4)ccnc3cc2c1` [MMV006861], the “Max Resp” value is reported as -63%, the “Curve Class” value is reported as -2.2 and the IC50 (read-out: IC50) is reported as 18.7 µM.

In the case of `CCOC(=O)c1cnc2ccc(Cl)cc2c1NCCCN(C)C` [MMV006882], the “Max Resp” value is reported as -43%, the “Curve Class” value is reported as -2.2 and the IC50 is reported as “Inactive”.

In the case of `C=CCc1c(C)nc2ccccc2c1O` [MMV006913], the “Max Resp” value is reported as 0%, the “Curve Class” value is reported as 4 and the IC50 is reported as “Inactive”.

For `O=C(Nc1ccc(-c2nc3cc(NC(=O)c4ccc(Cl)cc4)ccc3[nH]2)cc1)c1ccc(Cl)cc1` [MMV006962], the “Max Resp” value was -94%, the “Curve Class” value was -2.1 and the IC50 (read-out: IC50) was 11.8 µM.

`Cc1ccc2c(C)nc(Nc3nc(C)cc(-c4ccccc4)n3)nc2c1` [MMV007041] was tested, and the “Max Resp” value was -50%, the “Curve Class” value was -2.2 and the IC50 was “Inactive”.

`CCOc1ccc(CN2CCN(CC(O)COc3ccc(OCC(O)CN4CCN(Cc5ccc(OCC)cc5)CC4)cc3)CC2)cc1` (stereo not drawn) [MMV007092] was tested, and the “Max Resp” value was -94%, the “Curve Class” value was -1.1 and the IC50 (read-out: IC50) was 7.43 µM.

For `c1ccc(/C2=N/c3ccccc3/N=C(/c3ccccc3)c3ccccc32)cc1` [MMV007113], the “Max Resp” value was -5%, the “Curve Class” value was 4 and the IC50 was “Inactive”.

For `CCOC(=O)c1c[nH]c2ccc(CC)cc2c1=O` [MMV007116], the “Max Resp” value was 32%, the “Curve Class” value was 4 and the IC50 was “Inactive”.

`Cc1ccc(N2C3c4ccccc4N(S(=O)(=O)c4ccc(C)cc4)C2c2ccccc2N3S(=O)(=O)c2ccc(C)cc2)cc1` [MMV007160] was tested, and the “Max Resp” value was -3%, the “Curve Class” value was 4 and the IC50 was “Inactive”.

`Cc1cc(Nc2ccc(OCc3ccccc3)cc2)nc2cc(O)ccc12` [MMV007181] was tested, and the “Max Resp” value was -30%, the “Curve Class” value was -1.2 and the IC50 (read-out: IC50) was 0.59 µM.

For `COc1ccccc1N1C(=N)SC(=Cc2ccc(OCc3ccccc3F)cc2)C1=O` [MMV007199], the “Max Resp” value was -2%, the “Curve Class” value was 4 and the IC50 was “Inactive”.

`COc1ccc(OC)c(C2C3=C(CC(C)(C)CC3=O)N(c3ccc(Cl)c(Cl)c3)C3=C2C(=O)CC(C)(C)C3)c1` [MMV007208] was tested, and the “Max Resp” value was -28%, the “Curve Class” value was 4 and the IC50 was “Inactive”.

`Brc1ccc(Nc2nc3ccccc3nc2Nc2ccc(Br)cc2)cc1` [MMV007224] was tested, and the “Max Resp” value was -96%, the “Curve Class” value was -2.1 and the IC50 (read-out: IC50) was 20.9 µM.

With `Cc1cccc(N2C(=O)C3C(C2=O)C2(c4ccccc4)C(=O)C3(c3ccccc3)C(c3ccc4c(c3)OCO4)=C2c2ccc3c(c2)OCO3)c1` (stereo not drawn) [MMV007228] the “Max Resp” value was -1%, the “Curve Class” value was 4 and the IC50 was “Inactive”.

`COc1cc(-c2nc(-c3ccc(Sc4ccccc4)cc3)c(-c3ccccc3)[nH]2)cc(OC)c1O` [MMV007273] was tested, and the “Max Resp” value was -62%, the “Curve Class” value was -2.2 and the IC50 (read-out: IC50) was 29.6 µM.

For `Cc1ccc(F)cc1NC(=O)c1cc(Cl)ccc1Nc1ccccc1` [MMV007275], the “Max Resp” value was -41%, the “Curve Class” value was -2.2 and the IC50 was “Inactive”.

For `CCOc1ccc(Nc2ccnc3cc(Cl)ccc23)cc1` [MMV007285], the “Max Resp” value was -38%, the “Curve Class” value was -1.2 and the IC50 (read-out: IC50) was 5.26 µM.

For `Clc1ccc2c(N3CCCC3)ccnc2c1` [MMV007363], the “Max Resp” value was -75%, the “Curve Class” value was -2.2 and the IC50 (read-out: IC50) was 23.5 µM.

In the case of `CCc1ccc(Nc2cc(C)nc3nc(C)nn23)cc1` [MMV007374], the “Max Resp” value is reported as -9%, the “Curve Class” value is reported as 4 and the IC50 is reported as “Inactive”.

For `COc1ccc(-c2nc3cc(Cc4ccc5[nH]c(-c6ccc(OC)cc6)nc5c4)ccc3[nH]2)cc1` [MMV007384], the “Max Resp” value was -59%, the “Curve Class” value was -2.2 and the IC50 (read-out: IC50) was 37.2 µM.

With `Cc1ccccc1OCCSc1nc2ccc(NC(=O)c3cccs3)cc2s1` [MMV007396] the “Max Resp” value was 23%, the “Curve Class” value was 4 and the IC50 was “Inactive”.

`O=C(NCc1ccco1)C1CCN(S(=O)(=O)c2ccc(Br)cc2)CC1` [MMV007430] was tested, and the “Max Resp” value was 29%, the “Curve Class” value was 4 and the IC50 was “Inactive”.

With `COc1cc2c3cc1Oc1c(OC)c(OC)cc4c1C(Cc1ccc(O)c(c1)Oc1ccc(cc1)CC3N(C)CC2)N(C)CC4.Cl` (stereo not drawn) [MMV007474] the “Max Resp” value was -93%, the “Curve Class” value was -1.1 and the IC50 (read-out: IC50) was 5.9 µM.

With `COc1ccc(CCNC(=O)c2cc(S(=O)(=O)N3CC(C)CC(C)C3)ccc2Sc2ccc(F)cc2)cc1OC` (stereo not drawn) [MMV007557] the “Max Resp” value was -72%, the “Curve Class” value was -2.2 and the IC50 (read-out: IC50) was 9.35 µM.

With `Cc1ccc(Cn2c(N3CCC(C(=O)NCc4cccs4)CC3)nc3ccccc32)cc1` [MMV007564] the “Max Resp” value was -54%, the “Curve Class” value was -2.2 and the IC50 was “Inactive”.
